# From patent US20090036448A1, “PYRIMIDINE DERIVATIVES AND METHODS OF TREATMENT RELATED TO THE USE THEREOF” (TAISHO PHARMECUTICAL CO., LTD., priority 2004, published 2009)
# Where a name gives a salt, the structure may show the parent alone.
# Molecular target: MCH receptor (Homo sapiens, UniProt Q99705)
# Assay: FLIPR/FDSS6000 functional assay: intracellular Ca2+ changes evoked by MCH
# Assay type: cell-based
# Details: class by percent of control at 10^−7 M or by IC50; antagonist activity, 50 nM of MCH; read-out: class
# Excerpt: Subsequently, a functional based assay was used to confirm the lead hits, referred to as FLIPR™ (the Fluorometric Imaging Plate Reader) and FDSS6000™ (Functional Drug Screening System). This assay utilized a non-endogenous, constitutively active version of the MCH receptor.
# The FLIPR and FDSS assays are able to detect intracellular Ca^2+ concentration in cells, which can be utilized to assess receptor activation and determine whether a candidate compound is an, for example, antagonist, inverse agonist or agonist to a Gq-coupled receptor. The concentration of free Ca^2+ in the cytosol of any cell is extremely low, whereas its concentration in the extracellular fluid and endoplasmic reticulum (ER) is very high. Thus, there is a large gradient tending to drive Ca^2+ into the cytosol across both the plasma membrane and ER. The FLIPR™ and FDSS6000™ systems (Molecular Devices Corporation, HAMAMATSU Photonics K.K.) are designed to perform functional cell-based assays, such as the measurement of intracellular calcium for high-throughput screening. The measurement of fluorescent is associated with calcium release upon activation of the Gq-coupled receptors.
# Fluorometric Imaging Plate Reader system was used to allow for rapid, kinetic measurements of intracellular fluorescence in 96 well microplates (or 384 well microplates). Simultaneous measurements of fluorescence in all wells can be made by FLIPR or FDSS6000™ every second with high sensitivity and precision. These systems are ideal for measuring cell-based functional assays such as monitoring the intracellular calcium fluxes that occur within seconds after activation of the Gq coupled receptor.
# Briefly, the cells are seeded into 96 well at 5.5×10^4 cells/well with complete culture media (Dulbecco's Modified Eagle Medium with 10% fetal bovine serum, 2 mM L-glutamine, 1 mM sodium pyruvate and 0.5 mg/mL G418, pH 7.4) for the assay next day. On the day of assay, the media is removed and the cells are incubated with 100 μl of loading buffer (4 μM Fluo-4-AM in complete culture media containing 2.5 mM Probenicid, 0.5 mg/ml and 0.2% bovine serum albumin) in 5% CO2 incubator at 37° C. for 1 hr. The loading buffer is removed, and the cells are washed with wash buffer (Hank's Balanced Salt Solution containing 2.5 mM Probenicid, 20 mM HEPES, 0.5 mg/mL and 0.2% bovine serum albumin, pH 7.4). One hundred fifty μl of wash buffer containing various concentrations of test compound is added to the cells, and the cells are incubated in 5% CO2 incubator at 37° C. for 30 min. Fifty μl of wash buffer containing various concentration of MCH are added to each well, and transient changes in [Ca^2+]i evoked by MCH are monitored using the FLIPR or FDSS in 96 well plates at Ex. 488 nm and Em. 530 nm for 290 second. When antagonist activity of compound is tested, 50 nM of MCH is used.
# Use of FLIPR™ and FDSS6000™ can be accomplished by following manufacturer's instruction (Molecular Device Corporation and HAMAMATSU Photonics K.K.).
row,IC50,Compound
1,> 200 nM,"Cc1nc(NC[C@H]2CC[C@@H](NC(=O)c3ccc(F)c(F)c3)CC2)cc(N(C)C)n1 [Example 28, N-[cis-4-({[6-(Dimethylamino)-2-methylpyrimidin-4-yl]amino}methyl)cyclohexyl]-3,4-difluorobenzamide hydrochloride]"
2,> 200 nM,"Cc1nc(N[C@H]2CC[C@@H](CNC(=O)c3ccc(F)c(F)c3)CC2)cc(N(C)C)n1 [Example 29, N-[(cis-4-{[6-(Dimethylamino)-2-methylpyrimidin-4-yl]amino}cyclohexyl)methyl]-3,4-difluorobenzamide hydrochloride]"
3,> 200 nM,"CNc1cc(N[C@H]2CC[C@@H](NC(=O)c3ccc(F)c(F)c3)CC2)nc(C)n1 [Example 30, 3,4-Difluoro-N-(cis-4-{[2-methyl-6-(methylamino)pyrimidin-4-yl]amino}cyclohexyl)-benzamide hydrochloride]"
4,50 to 200 nM,"CNc1cc(N[C@H]2CC[C@@H](NC(=O)c3ccc(F)c(Cl)c3)CC2)nc(C)n1 [Example 31, 3-Chloro-4-fluoro-N-(cis-4-{[2-methyl-6-(methylamino)pyrimidin-4-yl]amino}cyclohexyl)-benzamide hydrochloride]"
5,< 50 nM,"CCc1nc(N[C@H]2CC[C@@H](NC(=O)c3ccc(F)c(F)c3)CC2)cc(N(C)C)n1 [Example 32, N-(cis-4-{[6-(Dimethylamino)-2-ethylpyrimidin-4-yl]amino}cyclohexyl)-3,4-difluorobenzamide hydrochloride]"
6,50 to 200 nM,"CN(C)c1cc(N[C@H]2CC[C@@H](NC(=O)c3ccc(F)c(F)c3)CC2)nc(N(C)C)n1 [Example 33, N-(cis-4-{[2,6-bis(Dimethylamino)pyrimidin-4-yl]amino}cyclohexyl)-3,4-difluorobenzamide hydrochloride]"
7,> 200 nM,"CCNc1nccc(N[C@H]2CC[C@@H](NC(=O)c3ccc(F)c(F)c3)CC2)n1 [Example 34, N-(cis-4-{[2-(Ethylamino)pyrimidin-4-yl]amino}cyclohexyl)-3,4-difluorobenzamide hydrochloride]"
8,> 200 nM,"CCN(C)c1nccc(N[C@H]2CC[C@@H](NC(=O)c3ccc(F)c(F)c3)CC2)n1 [Example 35, N-[cis-4-({2-[Ethyl(methyl)amino]pyrimidine-4-yl}amino)cyclohexyl]-3,4-difluorobenzamide hydrochloride]"
9,> 200 nM,"CN(CCO)c1nccc(N[C@H]2CC[C@@H](NC(=O)c3ccc(F)c(F)c3)CC2)n1 [Example 36, 3,4-Difluoro-N-[cis-4-({2-[(2-hydroxyethyl)(methyl)amino]pyrimidin-4-yl}amino)-cyclohexyl]benzamide hydrochloride]"
10,> 200 nM,"Cc1nc(N[C@H]2CC[C@@H](NC(=O)c3ccc(F)c(Cl)c3)CC2)cc(N2CCCCC2)n1 [Example 37, 3-Chloro-4-fluoro-N-{cis-4-[(2-methyl-6-piperidin-1-ylpyrimidin-4-yl)amino]cyclohexyl}-benzamide hydrochloride]"
11,> 200 nM,"Cc1nc(N[C@H]2CC[C@@H](NC(=O)c3ccc(F)c(Cl)c3)CC2)cc(-n2ccnc2)n1 [Example 38, 3-Chloro-4-fluoro-N-(cis-4-{[6-(1H-imidazol-1-yl)-2-methylpyrimidin-4-yl]amino}cyclohexyl)-benzamide dihydrochloride]"
12,50 to 200 nM,"Cc1nc(N[C@H]2CC[C@@H](NC(=O)c3ccc(F)c(Cl)c3)CC2)cc(N2CCOCC2)n1 [Example 39, 3-Chloro-4-fluoro-N-{cis-4-[(2-methyl-6-morpholin-4-ylpyrimidin-4-yl)amino]cyclohexyl}-benzamide hydrochloride]"
13,< 50 nM,"Cc1nc(N[C@H]2CC[C@@H](NC(=O)c3ccc(F)c(Cl)c3)CC2)cc(N2CCCC2)n1 [Example 40, 3-Chloro-4-fluoro-N-{cis-4-[(2-methyl-6-pyrrolidin-1-ylpyrimidin-4-yl)amino]cyclohexyl}-benzamide hydrochloride]"
14,> 200 nM,"Cc1nc(N[C@H]2CC[C@@H](NC(=O)c3ccc(F)c(Cl)c3)CC2)cc(N2CCN(C)CC2)n1 [Example 41, 3-Chloro-4-fluoro-N-(cis-4-{[2-methyl-6-(4-methylpiperazin-1-yl)pyrimidin-4-yl]amino}-cyclohexyl)benzamide dihydrochloride]"
15,50 to 200 nM,"Cc1cc(N[C@H]2CC[C@@H](NC(=O)c3ccc(F)c(F)c3)CC2)nc(N(C)C)n1 [Example 43, N-(cis-4-{[2-(Dimethylamino)-6-methylpyrimidin-4-yl]amino}cyclohexyl)-3,4-difluorobenzamide hydrochloride]"
16,< 50 nM,"CN(C)c1nccc(N[C@H]2CC[C@@H](NC(=O)c3ccc(F)c(Cl)c3)CC2)n1 [Example 44, 3-Chloro-N-(cis-4-{[2-(dimethylamino)pyrimidin-4-yl]amino}cyclohexyl)-4-fluorobenzamide hydrochloride]"
17,50 to 200 nM,"Cc1cc(N[C@H]2CC[C@@H](NC(=O)c3ccc(F)c(Cl)c3)CC2)nc(N(C)C)n1 [Example 45, 3-Chloro-N-(cis-4-{([2-(dimethylamino)-6-methylpyrimidin-4-yl]amino}cyclohexyl)-4-fluorobenzamide hydrochloride]"
18,> 200 nM,"Cc1cnc(N(C)C)nc1N[C@H]1CC[C@@H](NC(=O)c2ccc(F)c(Cl)c2)CC1 [Example 46, 3-Chloro-N-(cis-4-{[2-(dimethylamino)-5-methylpyrimidin-4-yl]amino}cyclohexyl)-4-fluorobenzamide hydrochloride]"
19,> 200 nM,"CN(C)c1cc(N[C@H]2CC[C@@H](NC(=O)c3ccc(F)c(Cl)c3)CC2)nc(C(F)(F)F)n1 [Example 47, 3-Chloro-N-(cis-4-{[6-(dimethylamino)-2-(trifluoromethyl)pyrimidin-4-yl]amino}cyclohexyl)-4-fluorobenzamide hydrochloride]"
20,> 200 nM,"Cc1nc(N)cc(N[C@H]2CC[C@@H](NC(=O)c3cc(F)c(F)c(F)c3)CC2)n1 [Example 168, N-{cis-4-[(6-Amino-2-methylpyrimidin-4-yl)amino]cyclohexyl}-3,4,5-trifluorobenzamide hydrochloride]"
21,50 to 200 nM,"CNc1cc(N[C@H]2CC[C@@H](NC(=O)c3cc(F)c(F)c(F)c3)CC2)nc(C)n1 [Example 169, 3,4,5-Trifluoro-N-(cis-4-{[2-methyl-6-(methylamino)pyrimidin-4-yl]amino}cyclohexyl)-benzamide hydrochloride]"
22,> 200 nM,"Cc1cc(N[C@H]2CC[C@@H](NC(=O)c3ccc(F)c(Cl)c3)CC2)nc(C)n1 [Example 171, 3-Chloro-N-{cis-4-[(2,6-dimethylpyrimidin-4-yl)amino]cyclohexyl}-4-fluorobenzamide hydrochloride]"
23,> 200 nM,"Cc1nc(Cl)cc(N[C@H]2CC[C@@H](NC(=O)c3cc(F)c(F)c(F)c3)CC2)n1 [Example 172, N-{cis-4-[(6-Chloro-2-methylpyrimidin-4-yl)amino]cyclohexyl}-3,4,5-trifluorobenzamide]"
24,> 200 nM,"Cc1nc(NC2CC2)cc(N[C@H]2CC[C@@H](NC(=O)c3cc(F)c(F)c(F)c3)CC2)n1 [Example 173, N-(cis-4-{[6-(Cyclopropylamino)-2-methylpyrimidin-4-yl]amino}cyclohexyl)-3,4,5-trifluorobenzamide hydrochloride]"
25,> 200 nM,"Cc1nc(N[C@H]2CC[C@@H](NC(=O)c3cc(F)c(F)c(F)c3)CC2)cc(N(C)c2ccccc2)n1 [Example 174, 3,4,5-Trifluoro-N-[cis-4-({2-methyl-6-[methyl(phenyl)amino]pyrimidin-4-yl}amino)-cyclohexyl]benzamide hydrochloride]"
26,> 200 nM,"Cc1nc(N[C@H]2CC[C@@H](NC(=O)c3cc(F)c(F)c(F)c3)CC2)cc(N(C)Cc2ccccc2)n1 [Example 175, N-[cis-4-({6-[Benzyl(methyl)amino]-2-methylpyrimidin-4-yl}amino)cyclohexyl]-3,4,5-trifluorobenzamide hydrochloride]"
27,> 200 nM,"CCN(C)c1cc(N[C@H]2CC[C@@H](NC(=O)c3cc(F)c(F)c(F)c3)CC2)nc(C)n1 [Example 176, N-[cis-4-({6-[Ethyl(methyl)amino]-2-methylpyrimidin-4-yl}amino)cyclohexyl]-3,4,5-trifluorobenzamide hydrochloride]"
